The supplement of paper PMC10307832

Legend:
Test in all cases: relative viability (nuclei count vs DMSO), 5 days (fraction); higher = more cells survive
[1] = compound: CC1CC(=O)N(C2=CN=C(N=C2N1C3CCCC3)NC4=C(C=C(C=C4)C(=O)NC5CCN(CC5)C)OC)C [NPK76-II-72-1] + Cc1cc(Nc2cc(N3CCN(C)CC3)nc(Sc3ccc(NC(=O)C4CC4)cc3)n2)n[nH]1 [Tozasertib] (partner 0.1 µM)
Outline: (§1)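 Relative viability equals treated-well nuclei counts divided by vehicle-well nuclei counts. Counts came from 4× images of lung cancer cell lines grown in 1536-well plates for 5 days after pin-tool dosing on the day after seeding. Dosing used one drug alone or a fixed anchor-drug dose plus five library-drug doses (not always all listed) in √10 steps, and values are medians of duplicate plates.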

BI-2536 + Alpelisib = compound: CC[C@@H]1C(=O)N(C)c2cnc(Nc3ccc(C(=O)NC4CCN(C)CC4)cc3OC)nc2N1C1CCCC1 [BI-2536] + Cc1nc(NC(=O)N2CCC[C@H]2C(N)=O)sc1-c1ccnc(C(C)(C)C(F)(F)F)c1 [Alpelisib] (partner 2 µM)
Outline: as §1

NPK76-II-72-1 + AZD7762 = compound: CC1CC(=O)N(C2=CN=C(N=C2N1C3CCCC3)NC4=C(C=C(C=C4)C(=O)NC5CCN(CC5)C)OC)C [NPK76-II-72-1] + NC(=O)Nc1cc(-c2cccc(F)c2)sc1C(=O)N[C@H]1CCCNC1 [AZD7762] (partner 0.2 µM)
Outline: as §1

NPK76-II-72-1 + OSI-027 = compound: CC1CC(=O)N(C2=CN=C(N=C2N1C3CCCC3)NC4=C(C=C(C=C4)C(=O)NC5CCN(CC5)C)OC)C [NPK76-II-72-1] + COc1cccc2cc(-c3nc([C@H]4CC[C@H](C(=O)O)CC4)n4ncnc(N)c34)[nH]c12 [OSI-027] (partner 0.5 µM)
Outline: as §1

Cell Line | relative viability ([1]; first compound 0.01 µM) | relative viability ([1]; first compound 0.03162 µM) | relative viability ([1]; first compound 0.1 µM) | relative viability ([1]; first compound 0.3162 µM) | relative viability ([1]; first compound 1 µM) | relative viability (BI-2536 + Alpelisib; first compound 0.01 µM) | relative viability (BI-2536 + Alpelisib; first compound 0.03162 µM) | relative viability (BI-2536 + Alpelisib; first compound 0.1 µM) | relative viability (BI-2536 + Alpelisib; first compound 0.3162 µM) | relative viability (BI-2536 + Alpelisib; first compound 1 µM) | relative viability (NPK76-II-72-1 + AZD7762; first compound 0.01 µM) | relative viability (NPK76-II-72-1 + AZD7762; first compound 0.03162 µM) | relative viability (NPK76-II-72-1 + AZD7762; first compound 0.1 µM) | relative viability (NPK76-II-72-1 + AZD7762; first compound 0.3162 µM) | relative viability (NPK76-II-72-1 + AZD7762; first compound 1 µM) | relative viability (NPK76-II-72-1 + OSI-027; first compound 0.01 µM) | relative viability (NPK76-II-72-1 + OSI-027; first compound 0.03162 µM) | relative viability (NPK76-II-72-1 + OSI-027; first compound 0.1 µM) | relative viability (NPK76-II-72-1 + OSI-027; first compound 0.3162 µM) | relative viability (NPK76-II-72-1 + OSI-027; first compound 1 µM)
NCI-H1993 | 0.594 | 0.633 | 0.545 | 0.499 | 0.627 | 0.68 | 0.618 | 0.556 | 0.532 | 0.541 | 0.739 | 0.706 | 0.97 | 0.713 | 0.914 | 0.532 | 0.534 | 0.51 | 0.528 | 0.549
NCI-H1734 | 0.29 | 0.271 | 0.28 | 0.261 | 0.287 | 0.634 | 0.777 | 0.51 | 0.192 | 0.222 | 0.531 | 0.557 | 0.676 | 0.532 | 0.667 | 0.495 | 0.625 | 0.64 | 0.589 | 0.628
HOP-62 | 0.333 | 0.382 | 0.397 | 0.328 | 0.413 | 1.04 | 1.06 | 0.922 | 0.176 | 0.104 | 0.405 | 0.507 | 0.556 | 0.444 | 0.514 | 0.784 | 0.919 | 0.917 | 0.722 | 0.978
LOU-NH91 | 0.688 | 0.674 | 0.628 | 0.576 | 0.741 | 0.764 | 0.602 | 0.657 | 0.359 | 0.317 | 0.728 | 0.744 | 0.723 | 0.675 | 0.798 | 0.667 | 0.704 | 0.713 | 0.654 | 0.813
PC-14 | 0.577 | 0.609 | 0.594 | 0.564 | 0.699 | 0.951 | 0.891 | 0.877 | 0.0726 | 0.0642 | 0.356 | 0.312 | 0.337 | 0.358 | 0.344 | 0.778 | 0.935 | 0.981 | 0.667 | 1.08
NCI-H1437 | 0.393 | 0.469 | 0.391 | 0.361 | 0.422 | 0.981 | 0.742 | 0.422 | 0.113 | 0.0916 | 1.14 | 1.15 | 1.1 | 1.04 | 1.17 | 0.862 | 0.877 | 0.871 | 0.843 | 0.995
NCI-H460 | 0.524 | 0.529 | 0.673 | 0.463 | 0.597 | 0.523 | 0.481 | 0.0303 | 0.0093 | 0.0065 | 0.631 | 0.652 | 0.666 | 0.555 | 0.75 | 0.706 | 0.79 | 0.75 | 0.628 | 0.775
NCI-H1666 | 0.668 | 0.674 | 0.525 | 0.546 | 0.666 | 0.988 | 0.737 | 0.592 | 0.287 | 0.266 | 0.84 | 0.861 | 0.852 | 0.752 | 1.01 | 0.802 | 0.871 | 0.82 | 0.777 | 0.975
NCI-H1651 | 0.632 | 0.919 | 0.661 | 0.388 | 0.759 | 0.93 | 0.828 | 0.558 | 0.0805 | 0.0804 | 0.436 | 0.449 | 0.471 | 0.377 | 0.501 | 0.676 | 0.743 | 0.677 | 0.652 | 0.799
NCI-H1755 | 0.669 | 0.663 | 0.526 | 0.552 | 0.653 | 0.989 | 0.903 | 0.711 | 0.284 | 0.296 | 0.356 | 0.468 | 0.431 | 0.464 | 0.436 | 0.763 | 0.776 | 0.749 | 0.717 | 0.768
HARA | 0.124 | 0.0912 | 0.116 | 0.106 | 0.108 | 1.03 | 0.927 | 0.843 | 0.062 | 0.0695 | 0.292 | 0.464 | 0.297 | – | 0.451 | 0.393 | 0.424 | 0.545 | 0.345 | 0.67
NCI-H596 | 0.868 | 1.07 | 0.832 | 0.921 | 1.04 | 0.409 | 0.46 | 0.535 | 0.305 | 0.304 | 1.13 | 1.12 | 1.27 | 1.15 | 1.1 | 0.873 | 0.666 | 0.748 | 0.691 | 0.67
NCI-H23 | 0.367 | 0.386 | 0.35 | 0.379 | 0.378 | 0.734 | 0.737 | 0.369 | 0.139 | 0.135 | 0.249 | 0.246 | 0.292 | 0.286 | 0.319 | 0.649 | 0.649 | 0.568 | 0.585 | 0.71
LCLC-97TM1 | 0.177 | 0.31 | 0.215 | 0.188 | 0.228 | 0.197 | 0.219 | 0.214 | 0.129 | 0.141 | 0.298 | 0.404 | 0.27 | – | 0.298 | 0.479 | 0.67 | 0.407 | 0.45 | 0.577
EPLC-272H | 0.278 | – | 0.281 | 0.229 | 0.229 | 0.951 | 0.758 | – | 0.0883 | 0.114 | 0.183 | 0.207 | 0.22 | 0.254 | 0.208 | 0.307 | – | 0.287 | 0.235 | 0.305
NCI-H1915 | 0.479 | 0.455 | 0.47 | 0.418 | 0.482 | 1.05 | 0.977 | 0.812 | 0.129 | 0.0999 | 0.709 | 0.751 | 0.665 | 0.647 | 0.726 | 0.616 | 0.708 | 0.659 | 0.584 | 0.654
